Assay results from ChEMBL document CHEMBL6127119 (J Med Chem, 2024).
Values after ≈ are worked out from the molar mass of the structure shown.

How the values were obtained:
Staphylococcus hominis = assay: Antibacterial activity against methicillin-resistant Staphylococcus hominis clinical isolate incubated for 16 to 24 hrs by CLSI based broth microdilution method; assay type: functional; conditions: time 16-24 hrs
[1] = system: Staphylococcus haemolyticus; assay: Antibacterial activity against methicillin-resistant Staphylococcus haemolyticus clinical isolate incubated for 16 to 24 hrs by CLSI based broth microdilution method; assay type: functional; conditions: time 16-24 hrs
Enterococcus faecium [2] = assay: Antibacterial activity against vancomycin-resistant Enterococcus faecium harboring VanA phenotype clinical isolate incubated for 16 to 24 hrs by CLSI based broth microdilution method; assay type: functional; conditions: time 16-24 hrs
Staphylococcus aureus [3] = assay: Antibacterial activity against methicillin-resistant Staphylococcus aureus clinical isolate incubated for 16 to 24 hrs by CLSI based broth microdilution method; assay type: functional; conditions: time 16-24 hrs
Enterococcus faecalis = assay: Antibacterial activity against Enterococcus faecalis clinical isolate incubated for 16 to 24 hrs by CLSI based broth microdilution method; assay type: functional; conditions: time 16-24 hrs
Acinetobacter baumannii [4] = assay: Potency index, ratio of Norvancomycin MIC to test compound MIC for Carbapenem-resistant Acinetobacter baumannii clinical isolate incubated for 16 to 24 hrs by CLSI based broth microdilution method; assay type: functional; conditions: time 16-24 hrs
Klebsiella pneumoniae = assay: Antibacterial activity against Klebsiella pneumoniae clinical isolate incubated for 16 to 24 hrs by CLSI based broth microdilution method; assay type: functional; conditions: time 16-24 hrs
Enterococcus faecium [5] = assay: Antibacterial activity against vancomycin-resistant Enterococcus faecium harboring VanM phenotype incubated for 16 to 24 hrs by CLSI based broth microdilution method; assay type: functional; conditions: time 16-24 hrs
Acinetobacter baumannii [6] = assay: Antibacterial activity against Carbapenem-resistant Acinetobacter baumannii clinical isolate incubated for 16 to 24 hrs by CLSI based broth microdilution method; assay type: functional; conditions: time 16-24 hrs
Staphylococcus aureus [7] = assay: Potency index, ratio of Norvancomycin MIC to test compound MIC for vancomycin-intermediate Staphylococcus aureus incubated for 16 to 24 hrs by CLSI based broth microdilution method; assay type: functional; conditions: time 16-24 hrs
Enterococcus faecium [8] = assay: Potency index, ratio of Vancomycin MIC to test compound MIC for vancomycin-resistant Enterococcus faecium incubated for 16 to 24 hrs by CLSI based broth microdilution method; assay type: functional; conditions: time 16-24 hrs
Enterococcus faecium [9] = assay: Antibacterial activity against vancomycin-resistant Enterococcus faecium harboring VanA phenotype incubated for 16 to 24 hrs by CLSI based broth microdilution method; assay type: functional; conditions: time 16-24 hrs
Escherichia coli [10] = assay: Potency index, ratio of Vancomycin MIC to test compound MIC for Escherichia coli […] incubated for 16 to 24 hrs by CLSI based broth microdilution method; assay type: functional; conditions: time 16-24 hrs
Enterococcus faecium [11] = assay: Potency index, ratio of Norvancomycin MIC to test compound MIC for vancomycin-resistant Enterococcus faecium incubated for 16 to 24 hrs by CLSI based broth microdilution method; assay type: functional; conditions: time 16-24 hrs
Enterococcus faecium [12] = assay: Antibacterial activity against vancomycin-resistant Enterococcus faecium harboring VanB phenotype incubated for 16 to 24 hrs by CLSI based broth microdilution method; assay type: functional; conditions: time 16-24 hrs
Escherichia coli [13] = assay: Potency index, ratio of Norvancomycin MIC to test compound MIC for Escherichia coli […] incubated for 16 to 24 hrs by CLSI based broth microdilution method; assay type: functional; conditions: time 16-24 hrs
Escherichia coli [14] = assay: Antibacterial activity against Escherichia coli AB1157 incubated for 16 to 24 hrs by CLSI based broth microdilution method; assay type: functional; conditions: time 16-24 hrs
Staphylococcus aureus [15] = assay: Antibacterial activity against vancomycin-intermediate Staphylococcus aureus incubated for 16 to 24 hrs by CLSI based broth microdilution method; assay type: functional; conditions: time 16-24 hrs
Acinetobacter baumannii [16] = assay: Potency index, ratio of Vancomycin MIC to test compound MIC for Carbapenem-resistant Acinetobacter baumannii clinical isolate incubated for 16 to 24 hrs by CLSI based broth microdilution method; assay type: functional; conditions: time 16-24 hrs
Staphylococcus aureus [17] = assay: Antibacterial activity against methicillin-susceptible Staphylococcus aureus incubated for 16 to 24 hrs by CLSI based broth microdilution method; assay type: functional; conditions: time 16-24 hrs
Staphylococcus aureus [18] = assay: Potency index, ratio of Vancomycin MIC to test compound MIC for vancomycin-intermediate Staphylococcus aureus incubated for 16 to 24 hrs by CLSI based broth microdilution method; assay type: functional; conditions: time 16-24 hrs
Pseudomonas aeruginosa = assay: Antibacterial activity against Pseudomonas aeruginosa PAO1 incubated for 16 to 24 hrs by CLSI based broth microdilution method; assay type: functional; conditions: time 16-24 hrs
[19] = system: Staphylococcus epidermidis; assay: Antibacterial activity against methicillin-resistant Staphylococcus epidermidis clinical isolate incubated for 16 to 24 hrs by CLSI based broth microdilution method; assay type: functional; conditions: time 16-24 hrs
Enterococcus faecium [20] = assay: Antibacterial activity against Enterococcus faecium clinical isolate incubated for 16 to 24 hrs by CLSI based broth microdilution method; assay type: functional; conditions: time 16-24 hrs
HEK-293T [21] = assay: Cytotoxicity against HEK293T cells at 100 ug/ml incubated for 72 hrs by MTT assay; assay type: toxicity, cell-based; conditions: human, dose 100 µg/ml
HEK-293T [22] = assay: Cytotoxicity against HEK293T cells upto […] incubated for 72 hrs by MTT assay; assay type: toxicity, cell-based; conditions: human

| SMILES | MIC (Staphylococcus hominis) [µg/mL] | MIC [1] [µg/mL] | MIC (Staphylococcus aureus [3]) [µg/mL] | MIC (Enterococcus faecalis) [µg/mL] | Ratio (Acinetobacter baumannii [4]) | MIC (Klebsiella pneumoniae) [µg/mL] | MIC (Enterococcus faecium [5]) [µg/mL] | MIC (Acinetobacter baumannii [6]) [µg/mL] | Ratio (Staphylococcus aureus [7]) | Ratio (Enterococcus faecium [8]) | MIC (Enterococcus faecium [9]) [µg/mL] | Ratio (Escherichia coli [10]) | Ratio (Enterococcus faecium [11]) | MIC (Enterococcus faecium [12]) [µg/mL] | Ratio (Escherichia coli [13]) | MIC (Escherichia coli [14]) [µg/mL] | MIC (Staphylococcus aureus [15]) [µg/mL] | Ratio (Acinetobacter baumannii [16]) | MIC (Staphylococcus aureus [17]) [µg/mL] | MIC (Pseudomonas aeruginosa) [µg/mL] | other results |
| --- | --- | --- | --- | --- | --- | --- | --- | --- | --- | --- | --- | --- | --- | --- | --- | --- | --- | --- | --- | --- | --- |
| CN[C@H](CC(C)C)C(=O)N[C@H]1C(=O)N[C@@H](CC(N)=O)C(=O)N[C@H]2C(=O)N[C@H]3C(=O)N[C@H](C(=O)N[C@H](C(=O)O)c4cc(O)cc(O)c4-c4cc3ccc4O)[C@H](O)c3ccc(c(Cl)c3)Oc3cc2cc(c3O[C@@H]2O[C@H](CO)[C@@H](O)[C@H](O)[C@H]2O[C@H]2C[C@](C)(N)[C@H](O)[C@H](C)O2)Oc2ccc(cc2Cl)[C@H]1O [VANCOMYCIN] | 1 (≈ 0.69 µM) | 1 (≈ 0.69 µM) | 0.25 (≈ 0.173 µM) | ≤ 0.03 |  |  |  |  |  |  |  |  |  |  |  |  |  |  |  |  | MIC (Enterococcus faecium [2]): > 64 µg/mL |
| CC(C)C[C@@H](N)C(=O)N[C@H]1C(=O)N[C@@H](CC(N)=O)C(=O)N[C@H]2C(=O)N[C@H]3C(=O)N[C@H](C(=O)N[C@H](C(=O)NCCc4ccc(-c5ccc(CNC(=N)N)cc5)cc4)c4cc(O)cc(O)c4-c4cc3ccc4O)[C@H](O)c3ccc(c(Cl)c3)Oc3cc2cc(c3O[C@@H]2O[C@H](CO)[C@@H](O)[C@H](O)[C@H]2O[C@H]2C[C@](C)(N)[C@H](O)[C@H](C)O2)Oc2ccc(cc2Cl)[C@H]1O |  |  |  |  | 2 | > 128 | 4 (≈ 2.37 µM) | 128 (≈ 75.9 µM) | 2 | 2 | 4 (≈ 2.37 µM) | 2 | 2 | 4 (≈ 2.37 µM) | 2 | 8 (≈ 4.75 µM) | 0.5 (≈ 0.297 µM) | 2 | 0.125 (≈ 0.0742 µM) | > 128 | Ratio (Staphylococcus aureus [18]): 2 |
| CC(C)C[C@@H](N)C(=O)N[C@H]1C(=O)N[C@@H](CC(N)=O)C(=O)N[C@H]2C(=O)N[C@H]3C(=O)N[C@H](C(=O)N[C@H](C(=O)NCc4ccc(-c5ccc(CCNC(=N)N)cc5)cc4)c4cc(O)cc(O)c4-c4cc3ccc4O)[C@H](O)c3ccc(c(Cl)c3)Oc3cc2cc(c3O[C@@H]2O[C@H](CO)[C@@H](O)[C@H](O)[C@H]2O[C@H]2C[C@](C)(N)[C@H](O)[C@H](C)O2)Oc2ccc(cc2Cl)[C@H]1O |  |  |  |  | 2 | > 128 | 2 (≈ 1.19 µM) | 64 (≈ 38 µM) | 2 | 2 | 4 (≈ 2.37 µM) | 2 | 2 | 4 (≈ 2.37 µM) | 2 | 8 (≈ 4.75 µM) | 0.5 (≈ 0.297 µM) | 2 | 0.125 (≈ 0.0742 µM) | > 128 | Ratio (Staphylococcus aureus [18]): 2 |
| CN[C@H](CC(C)C)C(=O)N[C@H]1C(=O)N[C@@H](CC(N)=O)C(=O)N[C@H]2C(=O)N[C@H]3C(=O)N[C@H](C(=O)N[C@H](C(=O)O)c4cc(O)cc(O)c4-c4cc3ccc4O)[C@H](O[C@H]3C[C@](C)(N)[C@@H](O)[C@H](C)O3)c3ccc(c(Cl)c3)Oc3cc2cc(c3O[C@@H]2O[C@H](CO)[C@@H](O)[C@H](O)[C@H]2O[C@H]2C[C@](C)(NCc3ccc(-c4ccc(Cl)cc4)cc3)[C@@H](O)[C@H](C)O2)Oc2ccc(cc2Cl)[C@H]1O [ORITAVANCIN] | 0.12 (≈ 0.0669 µM) | 0.06 (≈ 0.0335 µM) | 0.12 (≈ 0.0669 µM) | ≤ 0.03 |  |  |  |  |  |  |  |  |  |  |  |  |  |  |  |  | MIC [19]: 0.12 µg/mL (≈ 0.0669 µM); MIC (Enterococcus faecium [20]): ≤ 0.03 µg/mL |
| CN[C@H](CC(C)C)C(=O)N[C@H]1C(=O)N[C@@H](CC(N)=O)C(=O)N[C@H]2C(=O)N[C@H]3C(=O)N[C@H](C(=O)N[C@H](C(=O)NCCCCCCCCN)c4cc(O)cc(O)c4-c4cc3ccc4O)[C@H](O)c3ccc(c(Cl)c3)Oc3cc2cc(c3O[C@@H]2O[C@H](CO)[C@@H](O)[C@H](O)[C@H]2O[C@H]2C[C@](C)(N)[C@H](O)[C@H](C)O2)Oc2ccc(cc2Cl)[C@H]1O |  |  |  |  |  | > 128 | 64 (≈ 40.6 µM) | 128 (≈ 81.2 µM) |  |  | 64 (≈ 40.6 µM) |  |  | 16 (≈ 10.2 µM) |  | 64 (≈ 40.6 µM) | 2 (≈ 1.27 µM) |  | 1 (≈ 0.635 µM) | 128 (≈ 81.2 µM) | Activity (HEK-293T [21]): Non-Toxic; Activity (HEK-293T [22]): Non-Toxic |
